Source: patent publication US9441017B2, “Water-soluble polypeptides comprised of repeat modules, method for preparing the same and method for a target-specific polypeptide and analysis of biological activity thereof” (priority 2011, dated 2016)
Entries after “also recorded” stand apart in the source; their conditions may differ.

How the values were obtained:
[1] = tested on: LPS signal transduction in differentiated THP-1 cells; assay: TNF-α secretion of LPS-treated, PMA-differentiated THP-1 cells by ELISA; assay type: cell-based, human; conditions: differentiated THP-1, 20 ng/ml LPS, 6 hours
Protocol: First, THP-1 monocyte (TIB-202TM, ATCC) was cultured in RPMI containing 10% FBS (Fetal Bovine Serum) and 50 µM 2-mercaptoethanol at 37° C. and 5% CO2. When cell density reached 90%, they were washed with a DPBS buffer solution (pH 7.4). Then, to increase the sensitivity to LPS, the cells were suspended in a medium supplemented with 200 nM PMA (phorbol 12-myristate-13-acetate), and aliquoted to a 96-well plate in a density of 2.5×10^4/well, followed by incubation for 72 hours at 37° C. and 5% CO2 for differentiation.
Prior to the experiment, 10 μg/ml of InlB-VLR and MD-2-added RPMI medium, and 10 μg/ml of MD-2 and 10 μg/ml of IVLR-added medium, 10 μg/ml of TV3-added medium, and 10 μg/ml of TV-3 and MD-2-added medium as control groups were prepared and left at 37° C. for 1 hour. Then, THP-1 differentiated into macrophage by PMA was washed with DPBS buffer solution (pH 7.4) three times, and the sample-containing RPMI media were treated with 20 ng/ml of LPS and THP-1, followed by incubation at 37° C. and 5% CO2 for 6 hours. After 6 hours, a predetermined amount of culture was taken from each well, and diluted 4-8 fold using DPBS buffer solution (pH 7.4), followed by ELISA (Enzyme-Linked Immunosorbent Assays) for the secreted TNF-α.
Monocyte THP-1 (TIB-202TM, ATCC) was cultured in RPMI media supplemented with 10% Fetal Bovine Serum (FBS) and 50 µM of 2-mercaptoethanol at 37° C. and 5% CO2. When the cells reached 90% confluence, they were washed with PBS buffer solution (pH 7.4). In order to increase LPS sensitivity, the cells were suspended in RPMI media containing 200 nM of PMA (phorbol 12-myristate-13-acetate), and plated in a 96-well plate at a density of 2.5×10^4 cells/well, and differentiated at 37° C. and 5% CO2 for 72 hours.
Prior to the experiment, the LPS inhibitor polymyxin B was diluted in RPMI at a concentration of 1-100 μg/ml, and incubated at 37° C. for 1 hour. […] The results were calculated from a standard curve of TNF-α.

[2] = tested on: TLR4/MD-2 receptor activation by LPS; assay: NF-κB firefly/Renilla luciferase reporter assay in HEK293/hTLR4A-MD2-CD14 cells; assay type: cell-based, human; conditions: HEK293/hTLR4A-MD2-CD14, 10 ng/ml LPS, 6 hours
Protocol: In order to monitor activation of TLR4-MD-2 receptor by LPS, an HEK293/hTLR4A-MD2-CD14 cell line (Invivogen) stably expressing TLR4 and MD2, CD14 genes, prepared by introduction of the genes into HEK293 cell, was used. The HEK293/hTLR4A-MD2-CD14 cell line was subcultured in an RPMI medium (Invitrogen) supplemented with 10% Fetal Bovine Serum (FBS) in an incubator at 37° C. and 5% CO2, and then used for the experiment.
In the present invention, the LPS inhibitor, polymyxin B (Invivogen) and the LPS antagonist, LPS-RS (Invivogen) were diluted in RPMI media at a concentration of 0.01-100 μg/ml, and reacted with 10 ng/ml of LPS at 37° C. for 1 hour. […]
First, the media were removed from the 24-well plate, and the plate was washed with a PBS buffer solution twice, and then 200 μl of passive lysis buffer (PLB) was added to each well for cell lysis. After 30 minutes, 20 μl of cell lysate was transferred to a new 96 well-plate, and then 100 μl of LAR II reagent containing a substrate of firefly luciferase was added to measure luminescence using a VICTOR X Multilabel Plate Reader (PerkinElmer) for 0.5 seconds. After measurement of firefly luciferase luminescence, 100 μl of STOP & GLO reagent containing a substrate of Renilla luciferase was added to measure Renilla luciferase luminescence for 0.5 second. […]

[3] = reported, Akashi et al. 2003; read-out: binding affinity (Kd) for LPS; cited from earlier work

Substance | inhibitory effect on LPS signal transduction (TNF-α secretion) [1] | inhibitory effect on LPS signal transduction (relative firefly luciferase activity) [2] | Kd [3]
polymyxin B | reduction in TNF-α secretion; also recorded: reduction in LPS signal transduction | relatively reduced luciferase activity; also recorded: relative reduction of firefly luciferase activity | 
MD-2: Myeloid differentiation protein-2, also called lymphocyte antigen 96, a glycoprotein that binds LPS | weak inhibitory effect |  | 65 nM
TLR4/MD-2 complex: complex of Toll-like receptor 4 with MD-2 |  |  | 3 nM
sTLR4: soluble extracellular domain of cell membrane receptor TLR4 | no LPS blocking activity | no LPS blocking activity | 
